Measured values taken from ChEMBL document CHEMBL5625192, “Discovery of Ibrutinib-based BTK PROTACs with in vivo anti-inflammatory efficacy by inhibiting NF-κB activation” (Eur J Med Chem, 2023).
≈ marks a conversion by molar mass, not a printed value. Calls of active or inactive are those of the source. The rule behind the calls is not given here.

Key:
[1] = biological target: T1, Protein cereblon/Tyrosine-protein kinase BTK (Homo sapiens, UniProt Q06187+Q96SW2); test: PROTAC activity at CRBN/BTK in human Ramos cells assessed as induction of BTK degradation at 100 nM incubated for 24 hrs by Western blot analysis relative to control; type: cell-based
Target sequence in this assay (Q06187 2-659 limits assumed): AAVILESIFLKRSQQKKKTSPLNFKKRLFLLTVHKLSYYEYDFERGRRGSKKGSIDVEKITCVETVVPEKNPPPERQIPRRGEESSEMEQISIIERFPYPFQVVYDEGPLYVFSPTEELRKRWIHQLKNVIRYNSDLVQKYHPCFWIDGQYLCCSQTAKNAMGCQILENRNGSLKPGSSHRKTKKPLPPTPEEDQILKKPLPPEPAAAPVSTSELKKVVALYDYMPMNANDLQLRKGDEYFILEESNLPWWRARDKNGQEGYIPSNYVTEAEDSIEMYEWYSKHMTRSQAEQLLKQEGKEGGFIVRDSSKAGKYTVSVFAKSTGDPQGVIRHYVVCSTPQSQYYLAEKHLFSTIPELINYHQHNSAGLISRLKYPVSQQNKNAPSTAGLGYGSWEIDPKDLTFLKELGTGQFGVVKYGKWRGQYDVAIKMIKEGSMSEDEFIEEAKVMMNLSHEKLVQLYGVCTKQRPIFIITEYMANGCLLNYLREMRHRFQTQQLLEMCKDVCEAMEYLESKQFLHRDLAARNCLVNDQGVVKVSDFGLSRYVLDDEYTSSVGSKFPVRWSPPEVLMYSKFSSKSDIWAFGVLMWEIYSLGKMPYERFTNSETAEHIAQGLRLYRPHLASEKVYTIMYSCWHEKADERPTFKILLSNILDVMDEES
Target sequence in this assay (Q96SW2 whole entry partner): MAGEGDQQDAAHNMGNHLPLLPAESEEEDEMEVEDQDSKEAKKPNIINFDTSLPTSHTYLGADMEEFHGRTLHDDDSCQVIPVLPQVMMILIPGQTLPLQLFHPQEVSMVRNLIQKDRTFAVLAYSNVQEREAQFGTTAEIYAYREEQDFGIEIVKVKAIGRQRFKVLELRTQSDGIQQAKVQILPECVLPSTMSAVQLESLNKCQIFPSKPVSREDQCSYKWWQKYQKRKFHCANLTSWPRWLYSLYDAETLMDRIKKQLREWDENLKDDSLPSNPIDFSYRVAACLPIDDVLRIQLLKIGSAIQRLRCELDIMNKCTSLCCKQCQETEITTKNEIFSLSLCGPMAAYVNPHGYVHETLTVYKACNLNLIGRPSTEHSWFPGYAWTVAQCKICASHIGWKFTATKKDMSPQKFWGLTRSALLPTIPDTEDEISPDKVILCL

[2] = biological target: T1, Protein cereblon/Tyrosine-protein kinase BTK; test: PROTAC activity at CRBN/BTK in human Ramos cells assessed as induction of BTK degradation incubated for 24 hrs by Western blot analysis; type: cell-based
Target sequence in this assay (Q06187 whole entry): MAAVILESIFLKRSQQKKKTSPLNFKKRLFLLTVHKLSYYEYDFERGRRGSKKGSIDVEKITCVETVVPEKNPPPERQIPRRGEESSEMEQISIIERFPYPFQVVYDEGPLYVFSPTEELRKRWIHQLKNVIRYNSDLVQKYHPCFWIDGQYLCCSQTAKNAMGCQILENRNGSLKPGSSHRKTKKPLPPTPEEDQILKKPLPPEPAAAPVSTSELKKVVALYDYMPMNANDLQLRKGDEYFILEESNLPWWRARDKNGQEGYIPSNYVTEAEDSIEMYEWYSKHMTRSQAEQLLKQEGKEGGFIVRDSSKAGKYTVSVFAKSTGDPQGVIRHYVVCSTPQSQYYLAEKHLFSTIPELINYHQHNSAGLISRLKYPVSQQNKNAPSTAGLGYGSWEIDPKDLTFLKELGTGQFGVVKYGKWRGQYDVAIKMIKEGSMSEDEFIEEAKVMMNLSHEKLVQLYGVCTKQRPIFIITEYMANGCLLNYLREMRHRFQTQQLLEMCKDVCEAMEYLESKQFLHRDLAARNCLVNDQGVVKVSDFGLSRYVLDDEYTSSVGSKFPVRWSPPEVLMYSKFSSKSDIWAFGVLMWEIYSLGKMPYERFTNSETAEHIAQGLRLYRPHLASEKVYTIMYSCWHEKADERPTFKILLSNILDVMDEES
Target sequence in this assay (Q96SW2 whole entry): as the sequence (Q96SW2 whole entry partner) above

[3] = biological target: T1, Protein cereblon/Tyrosine-protein kinase BTK; test: PROTAC activity at CRBN/BTK in human Ramos cells assessed as induction of BTK degradation by measuring maximal efficacy incubated for 24 hrs by Western blot analysis relative to control; type: cell-based
Target sequence in this assay (Q06187 2-659 limits assumed): as the sequence (Q06187 2-659 limits assumed) above
Target sequence in this assay (Q96SW2 whole entry partner): as the sequence (Q96SW2 whole entry partner) above

[4] = biological target: T1, Protein cereblon/Tyrosine-protein kinase BTK; test: PROTAC activity at CRBN/BTK in human Ramos cells assessed as hook effect at 10000 nM incubated for 24 hrs by Western blot analysis; type: cell-based
Target sequence in this assay (Q06187 2-659 limits assumed): as the sequence (Q06187 2-659 limits assumed) above
Target sequence in this assay (Q96SW2 whole entry partner): as the sequence (Q96SW2 whole entry partner) above

[5] = biological target: T1, Protein cereblon/Tyrosine-protein kinase BTK; test: PROTAC activity at CRBN/BTK in human MINO cells assessed as induction of BTK degradation incubated for 24 hrs by Western blot analysis; type: cell-based
Target sequence in this assay (Q06187 whole entry): as the sequence (Q06187 whole entry) above
Target sequence in this assay (Q96SW2 whole entry): as the sequence (Q96SW2 whole entry partner) above

[6] = biological target: T1, Protein cereblon/Tyrosine-protein kinase BTK; test: PROTAC activity at CRBN/BTK in human MINO cells assessed as induction of BTK degradation by measuring maximal efficacy incubated for 24 hrs by Western blot analysis relative to control; type: cell-based
Target sequence in this assay (Q06187 2-659 limits assumed): as the sequence (Q06187 2-659 limits assumed) above
Target sequence in this assay (Q96SW2 whole entry partner): as the sequence (Q96SW2 whole entry partner) above

[7] = biological target: T1, Protein cereblon/Tyrosine-protein kinase BTK; test: PROTAC activity at CRBN/BTK in human MINO cells assessed as hook effect upto 10000 nM incubated for 24 hrs by Western blot analysis; type: cell-based
Target sequence in this assay (Q06187 2-659 limits assumed): as the sequence (Q06187 2-659 limits assumed) above
Target sequence in this assay (Q96SW2 whole entry partner): as the sequence (Q96SW2 whole entry partner) above

[8] = biological target: T1, Protein cereblon/Tyrosine-protein kinase BTK; test: PROTAC activity at CRBN/BTK in human Ramos cells assessed as induction of BTK degradation at 100 nM measured within 4 hrs by Western blot analysis; type: cell-based
Target sequence in this assay (Q06187 2-659 limits assumed): as the sequence (Q06187 2-659 limits assumed) above
Target sequence in this assay (Q96SW2 whole entry partner): as the sequence (Q96SW2 whole entry partner) above

[9] = biological target: T1, Protein cereblon/Tyrosine-protein kinase BTK; test: PROTAC activity at CRBN/BTK in human Ramos cells assessed as induction of BTK degradation at 100 nM measured after 8 hrs by Western blot analysis relative to control; type: cell-based
[10] = biological target: T1, Protein cereblon/Tyrosine-protein kinase BTK; test: PROTAC activity at CRBN/BTK in human Ramos cells assessed as induction of BTK degradation at 100 nM pretreated with ibrutinib for 2 hrs followed by compound treatment and measured after 8 hrs by Western blot analysis; type: cell-based
[11] = biological target: T1, Protein cereblon/Tyrosine-protein kinase BTK; test: PROTAC activity at CRBN/BTK in human Ramos cells assessed as induction of BTK degradation at 100 nM pretreated with pomalidomide for 2 hrs followed by compound treatment and measured after 8 hrs by Western blot analysis; type: cell-based
[12] = biological target: T1, Protein cereblon/Tyrosine-protein kinase BTK; test: PROTAC activity at CRBN/BTK in human Ramos cells assessed as induction of BTK degradation at 100 nM pretreated with MG132 for 2 hrs followed by compound treatment and measured after 8 hrs by Western blot analysis; type: cell-based
[13] = biological target: T1, Protein cereblon/Tyrosine-protein kinase BTK; test: PROTAC activity at CRBN/BTK in human Ramos cells assessed as induction of BTK degradation at 100 nM pretreated with bafilomycin for 2 hrs followed by compound treatment and measured after 8 hrs by Western blot analysis; type: cell-based
[14] = biological target: T1, Protein cereblon/Tyrosine-protein kinase BTK; test: PROTAC activity at CRBN/BTK in human Ramos cells assessed as induction of BTK degradation at 100 nM pretreated with compound for 24 hrs followed by compound washout and measured upto 48 hrs by Western blot analysis; type: cell-based
[15] = system: RAW264.7; test: Cytotoxicity against mouse RAW264.7 cells assessed as reduction in cell viability upto 10 uM incubated for 24 hrs by CCK8 assay; type: toxicity, cell-based; conditions: raw264.7, 24 h
[16] = biological target: Protein cereblon/Tyrosine-protein kinase BTK (Mus musculus) (UniProt P35991+Q8C7D2); test: PROTAC activity at CRBN/BTK in mouse RAW264.7 cells assessed as induction of BTK degradation by Western blot analysis; type: cell-based; conditions: dose 0.1-10 µM
[17] = system: RAW264.7; test: Inhibition of NF-kappaB activation in LPS-stimulated mouse RAW264.7 cells assessed as reduction in phosphorylated BTK level at 0.1 to 10 uM preincubated with compound for 1 hrs followed by LPS stimulation and measured after 24 hrs by Western blot analysis; type: cell-based; conditions: dose 0.1-10 µM, time 25.0 hrs
[18] = system: RAW264.7; test: Inhibition of NF-kappaB activation in LPS-stimulated mouse RAW264.7 cells assessed as reduction in phosphorylated p65 level at 0.1 to 10 uM preincubated with compound for 1 hrs followed by LPS stimulation and measured after 24 hrs by Western blot analysis; type: cell-based; conditions: dose 0.1-10 µM, time 25.0 hrs
[19] = system: RAW264.7; test: Inhibition of NF-kappaB activation in LPS-stimulated mouse RAW264.7 cells assessed as prevention of IkappaB-alpha degradation at 0.1 to 10 uM preincubated with compound for 1 hrs followed by LPS stimulation and measured after 24 hrs by Western blot analysis; type: cell-based; conditions: dose 0.1-10 µM, time 25.0 hrs
[20] = system: RAW264.7; test: Inhibition of NF-kappaB activation in LPS-stimulated mouse RAW264.7 cells assessed as inhibition of IkappaB-alpha phosphorylation at 0.1 to 10 uM preincubated with compound for 1 hrs followed by LPS stimulation and measured after 24 hrs by Western blot analysis; type: cell-based; conditions: dose 0.1-10 µM, time 25.0 hrs
[21] = system: RAW264.7; test: Anti-inflammatory activity in LPS-stimulated mouse RAW264.7 cells assessed as reduction in IL-1beta mRNA level preincubated with compound for 2 hrs followed by LPS stimulation and measured after 3 hrs […]; type: functional, cell-based; conditions: dose 0.1-10 µM, time 5.0 hrs
[22] = system: RAW264.7; test: Anti-inflammatory activity in LPS-stimulated mouse RAW264.7 cells assessed as reduction in IL-1beta secretion at 0.1 to 10 uM preincubated with compound for 2 hrs followed by LPS stimulation and measured after 3 hrs by ELISA analysis; type: functional, cell-based; conditions: dose 0.1-10 µM, time 5.0 hrs
[23] = system: RAW264.7; test: Anti-inflammatory activity in LPS-stimulated mouse RAW264.7 cells assessed as reduction in IL-6 mRNA level preincubated with compound for 2 hrs followed by LPS stimulation and measured after 3 hrs […]; type: functional, cell-based; conditions: dose 0.1-10 µM, time 5.0 hrs
[24] = system: RAW264.7; test: Anti-inflammatory activity in LPS-stimulated mouse RAW264.7 cells assessed as reduction in IL-6 secretion at 0.1 to 10 uM preincubated with compound for 2 hrs followed by LPS stimulation and measured after 3 hrs by ELISA analysis; type: functional, cell-based; conditions: dose 0.1-10 µM, time 5.0 hrs
[25] = system: Mus musculus; test: Anti-inflammatory activity in zymosan-induced peritonitis C57BL/6J mouse model assessed as reduction in myeloid cells in peritoneal cavity preadministered intraperitoneally with compound for 1 hrs followed by zymosan administration and measured after 16 hrs by trypan blue staining based optical microscopic analysis; type: functional, organism-based; conditions: dose 10-50 mg/kg, route ip, time 17.0 hrs
[26] = system: Mus musculus; test: Anti-inflammatory activity in zymosan-induced peritonitis C57BL/6J mouse model assessed as decrease in IL-1beta level in peritoneal cavity preadministered intraperitoneally with compound for 1 hrs followed by zymosan administration and measured after 16 hrs by ELISA; type: functional, organism-based; conditions: dose 10-50 mg/kg, route ip, time 17.0 hrs
[27] = system: Mus musculus; test: Anti-inflammatory activity in zymosan-induced peritonitis C57BL/6J mouse model assessed as decrease in IL-6 level in peritoneal cavity preadministered intraperitoneally with compound for 1 hrs followed by zymosan administration and measured after 16 hrs by ELISA; type: functional, organism-based; conditions: dose 10-50 mg/kg, route ip, time 17.0 hrs
[28] = AUC (0 to t) in Sprague-Dawley rat at 2 mg/kg, iv measured after 48 hrs by UPLC analysis; type: ADME, organism-based; conditions: in vivo
[29] = AUC (0 to infinity) in Sprague-Dawley rat at 2 mg/kg, iv measured after 48 hrs by UPLC analysis; type: ADME, organism-based; conditions: in vivo
[30] = MRT (0 to t) in Sprague-Dawley rat at 2 mg/kg, iv measured after 48 hrs by UPLC analysis; type: ADME, organism-based; conditions: in vivo
[31] = MRT (0 to infinity) in Sprague-Dawley rat at 2 mg/kg, iv measured after 48 hrs by UPLC analysis; type: ADME, organism-based; conditions: in vivo
[32] = Half-life in Sprague-Dawley rat at 2 mg/kg, iv measured after 48 hrs by UPLC analysis; type: ADME, organism-based; conditions: in vivo
[33] = Apparent volume of distribution in Sprague-Dawley rat at 2 mg/kg, iv measured after 48 hrs by UPLC analysis; type: ADME, organism-based; conditions: in vivo, read-out: Vz
[34] = Clearance in Sprague-Dawley rat at 2 mg/kg, iv measured after 48 hrs by UPLC analysis; type: ADME, organism-based; conditions: in vivo
[35] = Cmax in Sprague-Dawley rat at 2 mg/kg, iv measured after 48 hrs by UPLC analysis; type: ADME, organism-based; conditions: in vivo
[36] = AUC (0 to t) in Sprague-Dawley rat at 20 mg/kg, po by UPLC analysis; type: ADME, organism-based; conditions: in vivo
[37] = AUC (0 to infinity) in Sprague-Dawley rat at 20 mg/kg, po by UPLC analysis; type: ADME, organism-based; conditions: in vivo
[38] = MRT (0 to t) in Sprague-Dawley rat at 20 mg/kg, po by UPLC analysis; type: ADME, organism-based; conditions: in vivo
[39] = MRT (0 to infinity) in Sprague-Dawley rat at 20 mg/kg, po by UPLC analysis; type: ADME, organism-based; conditions: in vivo
[40] = Half-life in Sprague-Dawley rat at 20 mg/kg, po by UPLC analysis; type: ADME, organism-based; conditions: in vivo
[41] = Cmax in Sprague-Dawley rat at 20 mg/kg, po by UPLC analysis; type: ADME, organism-based; conditions: in vivo
[42] = Oral bioavailability in Sprague-Dawley rat at 20 mg/kg by UPLC analysis; type: ADME, organism-based; conditions: in vivo
[43] = Aqueous solubility of compound incubated for 24 hrs by HPLC based shake flask method; type: physicochemical; conditions: buffer

Protein cereblon/Tyrosine-protein kinase BTK (Mus musculus), sequence (P35991 whole entry, looked up): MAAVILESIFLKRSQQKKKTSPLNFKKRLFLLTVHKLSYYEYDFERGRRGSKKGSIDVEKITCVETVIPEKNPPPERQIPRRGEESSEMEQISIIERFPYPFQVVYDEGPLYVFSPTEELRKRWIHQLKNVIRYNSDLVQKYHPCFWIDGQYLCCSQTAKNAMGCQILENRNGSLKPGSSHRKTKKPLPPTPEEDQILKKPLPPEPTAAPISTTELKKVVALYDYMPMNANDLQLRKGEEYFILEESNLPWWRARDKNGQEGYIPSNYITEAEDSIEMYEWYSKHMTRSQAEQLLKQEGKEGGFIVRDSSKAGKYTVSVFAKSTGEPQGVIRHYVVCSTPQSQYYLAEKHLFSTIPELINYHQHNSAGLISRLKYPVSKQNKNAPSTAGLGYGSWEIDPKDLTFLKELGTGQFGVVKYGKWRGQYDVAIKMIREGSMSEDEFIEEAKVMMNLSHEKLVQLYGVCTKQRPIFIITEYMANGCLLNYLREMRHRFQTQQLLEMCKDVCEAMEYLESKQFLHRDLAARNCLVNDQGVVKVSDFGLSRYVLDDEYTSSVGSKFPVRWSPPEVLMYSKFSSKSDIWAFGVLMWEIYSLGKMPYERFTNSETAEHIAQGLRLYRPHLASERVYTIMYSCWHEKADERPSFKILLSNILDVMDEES
Protein cereblon/Tyrosine-protein kinase BTK (Mus musculus), sequence (Q8C7D2 whole entry, looked up): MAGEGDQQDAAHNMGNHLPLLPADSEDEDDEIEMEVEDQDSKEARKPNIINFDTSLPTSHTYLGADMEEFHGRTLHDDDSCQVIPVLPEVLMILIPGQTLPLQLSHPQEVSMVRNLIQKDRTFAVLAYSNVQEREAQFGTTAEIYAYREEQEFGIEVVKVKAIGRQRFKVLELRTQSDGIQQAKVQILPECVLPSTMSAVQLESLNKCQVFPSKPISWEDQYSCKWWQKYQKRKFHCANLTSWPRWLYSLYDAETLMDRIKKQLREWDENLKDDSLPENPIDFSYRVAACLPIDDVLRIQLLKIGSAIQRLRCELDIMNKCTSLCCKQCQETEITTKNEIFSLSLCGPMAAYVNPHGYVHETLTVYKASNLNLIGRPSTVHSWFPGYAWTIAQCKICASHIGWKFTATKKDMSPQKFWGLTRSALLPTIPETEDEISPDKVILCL

Compound: Nc1ncnc2c1c(-c1ccc(Oc3ccccc3)cc1)nn2C1CCN(C(=O)CN2CCN(CC3CN(c4ccc5c(c4)C(=O)N(C4CCC(=O)NC4=O)C5=O)C3)CC2)CC1 (stereo not drawn)
- Activity [1]: 99.4%
- EC50 [2]: 3.18 nM
- Emax [3]: 99.9%
- Activity [4]: Active
- EC50 [5]: 7.07 nM
- Emax [6]: 100%
- Activity [7]: inactive
- Activity [8]: Active
- Activity [9]: 100%
- Activity [10]: inactive
- Activity [11]: inactive
- Activity [12]: inactive
- Activity [13]: Active
- Activity [14]: Active
- Activity [15]: Non-Toxic
- Activity [16]: Dose-Dependent Effect
- inhibition [17]: Active
- inhibition [18]: Active
- inhibition [19]: Active
- inhibition [20]: Active
- Activity [21]: Dose-Dependent Effect
- Activity [22]: Active
- Activity [23]: Dose-Dependent Effect
- Activity [24]: Active
- Activity [25]: Dose-Dependent Effect
- Activity [26]: Dose-Dependent Effect
- Activity [27]: Dose-Dependent Effect
- AUC(0-t) at 48 h [28]: 926 ng·h/mL
- AUC(0-inf) [29]: 934 ng·h/mL
- MRT last at 48 h [30]: 1.27 h
- MRT inf [31]: 1.37 h
- half-life [32]: 1.82 h
- Vd [33]: 5.85 L/kg
- clearance [34]: 37.5 mL/min/kg
- Cmax [35]: 1890 ng/mL
- AUC(0-t) [36]: 27.1 ng·h/mL
- AUC(0-inf) [37]: 29 ng·h/mL
- MRT last [38]: 4.95 h
- MRT inf [39]: 5.23 h
- half-life [40]: 2.12 h
- Cmax [41]: 9.7 ng/mL
- bioavailability [42]: 0.25%
- solubility thermodynamic at 24 h [43]: 8.16 µg/mL (≈ 9.74 µM)
